Experimental data taken from ChEMBL document CHEMBL4507276 (2021).

Columns and labels:
[1] = biological target: Alpha-1D adrenergic receptor (Homo sapiens) (UniProt P25100); test: ALPHA1D/H Eurofins-Panlabs selectivity data (BI); settings: Compound concentration 10.0 uM
[2] = biological target: Sodium channel regulatory subunit beta-1 (Rattus norvegicus) (UniProt Q00954); test: NA+/SITE2/RA Eurofins-Panlabs selectivity data (BI); settings: Compound concentration 10.0 uM
[3] = biological target: MAP kinase-interacting serine/threonine-protein kinase 1 (Homo sapiens) (UniProt Q9BUB5); test: MKNK1 Invitrogen selectivity data (BI); settings: Compound concentration 3.0 uM
Sequence of MAP kinase-interacting serine/threonine-protein kinase 1 (Homo sapiens) (Q9BUB5 whole entry, looked up): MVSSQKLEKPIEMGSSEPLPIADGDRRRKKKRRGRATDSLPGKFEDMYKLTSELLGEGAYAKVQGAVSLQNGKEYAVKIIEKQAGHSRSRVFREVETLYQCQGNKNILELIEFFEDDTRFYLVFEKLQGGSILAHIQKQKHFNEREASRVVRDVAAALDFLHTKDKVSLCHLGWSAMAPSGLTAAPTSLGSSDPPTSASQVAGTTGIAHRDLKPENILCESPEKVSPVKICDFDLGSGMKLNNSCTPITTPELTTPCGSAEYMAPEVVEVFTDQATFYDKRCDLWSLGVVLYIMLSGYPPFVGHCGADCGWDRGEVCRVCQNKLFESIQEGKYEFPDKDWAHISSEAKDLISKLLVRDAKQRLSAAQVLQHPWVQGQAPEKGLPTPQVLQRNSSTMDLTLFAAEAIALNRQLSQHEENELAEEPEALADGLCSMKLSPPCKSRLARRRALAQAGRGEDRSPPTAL

[4] = biological target: Mitogen-activated protein kinase 9 (Homo sapiens) (UniProt P45984); test: MAPK9 Invitrogen selectivity data (BI); settings: Compound concentration 3.0 uM
Sequence of Mitogen-activated protein kinase 9 (Homo sapiens) (P45984 whole entry, looked up): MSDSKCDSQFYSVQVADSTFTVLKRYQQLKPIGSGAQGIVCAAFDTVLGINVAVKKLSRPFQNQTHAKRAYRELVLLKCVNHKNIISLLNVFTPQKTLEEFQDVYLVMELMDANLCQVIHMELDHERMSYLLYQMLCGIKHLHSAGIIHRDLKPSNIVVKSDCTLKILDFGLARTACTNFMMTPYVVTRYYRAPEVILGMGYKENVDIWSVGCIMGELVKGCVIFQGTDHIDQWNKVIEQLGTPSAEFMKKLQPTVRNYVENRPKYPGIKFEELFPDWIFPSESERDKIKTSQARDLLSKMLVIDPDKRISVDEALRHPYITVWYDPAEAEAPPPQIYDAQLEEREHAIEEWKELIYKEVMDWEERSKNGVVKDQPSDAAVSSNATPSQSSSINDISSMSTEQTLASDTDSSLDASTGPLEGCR

[5] = biological target: Substance-K receptor (Homo sapiens) (UniProt P21452); test: NK2/H Cerep selectivity data (BI); settings: Compound concentration 20.0 uM
[6] = biological target: T1, Muscarinic acetylcholine receptor M4 (Homo sapiens) (UniProt P08173); test: M4/H Cerep selectivity data (BI); settings: Compound concentration 20.0 uM
T1 sequence (whole entry): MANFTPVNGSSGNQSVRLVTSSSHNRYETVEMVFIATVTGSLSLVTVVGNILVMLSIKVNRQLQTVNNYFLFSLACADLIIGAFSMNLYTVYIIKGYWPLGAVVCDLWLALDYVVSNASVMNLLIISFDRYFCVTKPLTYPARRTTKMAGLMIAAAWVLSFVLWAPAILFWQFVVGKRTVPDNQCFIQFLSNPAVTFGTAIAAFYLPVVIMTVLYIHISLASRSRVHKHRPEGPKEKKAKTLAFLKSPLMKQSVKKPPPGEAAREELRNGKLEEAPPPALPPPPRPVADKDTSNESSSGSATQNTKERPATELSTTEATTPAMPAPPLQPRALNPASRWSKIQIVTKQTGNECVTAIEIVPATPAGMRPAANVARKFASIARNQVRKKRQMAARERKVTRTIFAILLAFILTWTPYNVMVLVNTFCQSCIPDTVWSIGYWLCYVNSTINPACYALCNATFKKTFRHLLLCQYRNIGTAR

[7] = system: Tyrosine-protein kinase ABL1 (Homo sapiens), P00519 [E255K]; test: ABL1 E255K Invitrogen selectivity data (BI); settings: Compound concentration 3.0 uM
Sequence of Tyrosine-protein kinase ABL1 (Homo sapiens), P00519 [E255K] (P00519 whole entry E255K): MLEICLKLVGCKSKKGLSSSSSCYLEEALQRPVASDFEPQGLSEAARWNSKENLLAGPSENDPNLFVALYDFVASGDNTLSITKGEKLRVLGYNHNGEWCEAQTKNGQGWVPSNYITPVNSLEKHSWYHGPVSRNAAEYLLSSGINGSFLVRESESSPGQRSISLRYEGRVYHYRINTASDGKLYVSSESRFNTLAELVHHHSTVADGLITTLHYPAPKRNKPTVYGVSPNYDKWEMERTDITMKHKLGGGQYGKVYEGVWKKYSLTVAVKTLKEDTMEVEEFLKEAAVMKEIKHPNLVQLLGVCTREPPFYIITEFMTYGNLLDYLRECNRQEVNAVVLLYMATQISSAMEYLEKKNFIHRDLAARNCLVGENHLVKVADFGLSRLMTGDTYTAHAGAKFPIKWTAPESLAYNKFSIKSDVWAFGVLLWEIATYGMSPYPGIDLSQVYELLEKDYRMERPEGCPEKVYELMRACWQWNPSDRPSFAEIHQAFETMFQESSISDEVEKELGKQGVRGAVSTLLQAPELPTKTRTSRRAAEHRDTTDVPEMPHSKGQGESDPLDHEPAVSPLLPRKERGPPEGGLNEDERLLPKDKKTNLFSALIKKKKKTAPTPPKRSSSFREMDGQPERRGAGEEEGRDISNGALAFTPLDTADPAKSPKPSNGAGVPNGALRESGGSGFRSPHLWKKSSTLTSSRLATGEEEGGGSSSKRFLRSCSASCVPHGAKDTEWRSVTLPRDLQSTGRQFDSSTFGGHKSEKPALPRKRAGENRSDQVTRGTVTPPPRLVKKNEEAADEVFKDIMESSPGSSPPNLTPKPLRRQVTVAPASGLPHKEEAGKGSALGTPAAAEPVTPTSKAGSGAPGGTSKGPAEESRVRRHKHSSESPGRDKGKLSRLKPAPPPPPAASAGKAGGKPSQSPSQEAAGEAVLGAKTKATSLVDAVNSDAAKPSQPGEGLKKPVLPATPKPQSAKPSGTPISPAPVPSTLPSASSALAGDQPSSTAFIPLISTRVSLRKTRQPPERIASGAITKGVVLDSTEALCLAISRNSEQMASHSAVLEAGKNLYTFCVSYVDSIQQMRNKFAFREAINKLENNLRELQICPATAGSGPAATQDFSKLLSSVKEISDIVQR

[8] = biological target: Mast/stem cell growth factor receptor Kit (Homo sapiens) (UniProt P10721); test: KIT Invitrogen selectivity data (BI); settings: Compound concentration 3.0 uM
Sequence of Mast/stem cell growth factor receptor Kit (Homo sapiens) (P10721 whole entry): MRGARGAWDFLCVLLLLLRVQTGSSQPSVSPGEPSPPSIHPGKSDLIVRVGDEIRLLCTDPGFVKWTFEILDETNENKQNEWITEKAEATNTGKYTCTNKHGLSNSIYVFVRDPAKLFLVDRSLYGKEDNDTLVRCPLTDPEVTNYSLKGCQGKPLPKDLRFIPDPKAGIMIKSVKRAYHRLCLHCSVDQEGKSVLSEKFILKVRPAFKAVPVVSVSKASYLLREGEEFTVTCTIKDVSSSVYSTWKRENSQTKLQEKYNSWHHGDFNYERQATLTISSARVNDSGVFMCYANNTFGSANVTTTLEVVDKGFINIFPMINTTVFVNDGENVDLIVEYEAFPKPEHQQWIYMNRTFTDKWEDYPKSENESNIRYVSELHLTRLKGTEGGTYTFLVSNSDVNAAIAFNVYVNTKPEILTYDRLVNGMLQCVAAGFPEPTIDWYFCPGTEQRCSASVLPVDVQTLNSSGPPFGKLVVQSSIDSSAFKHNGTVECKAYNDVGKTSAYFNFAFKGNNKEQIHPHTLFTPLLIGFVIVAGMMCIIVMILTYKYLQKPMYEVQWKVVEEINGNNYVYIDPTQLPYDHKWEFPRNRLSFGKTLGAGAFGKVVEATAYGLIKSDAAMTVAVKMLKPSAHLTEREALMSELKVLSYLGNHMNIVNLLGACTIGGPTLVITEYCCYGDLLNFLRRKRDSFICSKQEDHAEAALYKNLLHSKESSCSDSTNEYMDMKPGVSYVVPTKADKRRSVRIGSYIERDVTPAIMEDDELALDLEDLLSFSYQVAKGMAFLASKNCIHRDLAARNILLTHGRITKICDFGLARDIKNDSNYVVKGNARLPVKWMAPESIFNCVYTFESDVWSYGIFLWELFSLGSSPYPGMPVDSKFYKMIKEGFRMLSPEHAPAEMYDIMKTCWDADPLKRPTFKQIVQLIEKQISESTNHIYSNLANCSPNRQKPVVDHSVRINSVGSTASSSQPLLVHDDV

[9] = biological target: T2, NUAK family SNF1-like kinase 1 (Homo sapiens) (UniProt O60285); test: NUAK1 Invitrogen selectivity data (BI); settings: Compound concentration 3.0 uM
T2 sequence (whole entry): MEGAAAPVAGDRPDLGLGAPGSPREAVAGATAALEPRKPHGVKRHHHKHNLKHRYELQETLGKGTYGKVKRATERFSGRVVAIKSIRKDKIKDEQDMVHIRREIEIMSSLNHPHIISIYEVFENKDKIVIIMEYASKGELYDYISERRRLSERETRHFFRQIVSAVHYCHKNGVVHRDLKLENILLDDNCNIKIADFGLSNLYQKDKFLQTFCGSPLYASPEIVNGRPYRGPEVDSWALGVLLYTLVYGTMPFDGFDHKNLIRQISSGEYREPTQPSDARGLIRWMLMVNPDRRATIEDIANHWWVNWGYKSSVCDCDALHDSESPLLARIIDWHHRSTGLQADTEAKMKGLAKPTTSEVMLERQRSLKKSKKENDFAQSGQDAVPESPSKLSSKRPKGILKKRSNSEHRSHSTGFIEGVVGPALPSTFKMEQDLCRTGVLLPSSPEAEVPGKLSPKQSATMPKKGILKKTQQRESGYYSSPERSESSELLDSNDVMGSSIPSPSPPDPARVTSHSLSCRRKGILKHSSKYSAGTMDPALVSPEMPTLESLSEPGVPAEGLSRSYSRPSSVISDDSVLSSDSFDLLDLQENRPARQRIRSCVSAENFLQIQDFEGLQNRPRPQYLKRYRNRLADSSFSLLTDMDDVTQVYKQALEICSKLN

[10] = biological target: Homeodomain-interacting protein kinase 3 (Homo sapiens) (UniProt Q9H422); test: HIPK3 Invitrogen selectivity data (BI); settings: Compound concentration 3.0 uM
Sequence of Homeodomain-interacting protein kinase 3 (Homo sapiens) (Q9H422 whole entry, looked up): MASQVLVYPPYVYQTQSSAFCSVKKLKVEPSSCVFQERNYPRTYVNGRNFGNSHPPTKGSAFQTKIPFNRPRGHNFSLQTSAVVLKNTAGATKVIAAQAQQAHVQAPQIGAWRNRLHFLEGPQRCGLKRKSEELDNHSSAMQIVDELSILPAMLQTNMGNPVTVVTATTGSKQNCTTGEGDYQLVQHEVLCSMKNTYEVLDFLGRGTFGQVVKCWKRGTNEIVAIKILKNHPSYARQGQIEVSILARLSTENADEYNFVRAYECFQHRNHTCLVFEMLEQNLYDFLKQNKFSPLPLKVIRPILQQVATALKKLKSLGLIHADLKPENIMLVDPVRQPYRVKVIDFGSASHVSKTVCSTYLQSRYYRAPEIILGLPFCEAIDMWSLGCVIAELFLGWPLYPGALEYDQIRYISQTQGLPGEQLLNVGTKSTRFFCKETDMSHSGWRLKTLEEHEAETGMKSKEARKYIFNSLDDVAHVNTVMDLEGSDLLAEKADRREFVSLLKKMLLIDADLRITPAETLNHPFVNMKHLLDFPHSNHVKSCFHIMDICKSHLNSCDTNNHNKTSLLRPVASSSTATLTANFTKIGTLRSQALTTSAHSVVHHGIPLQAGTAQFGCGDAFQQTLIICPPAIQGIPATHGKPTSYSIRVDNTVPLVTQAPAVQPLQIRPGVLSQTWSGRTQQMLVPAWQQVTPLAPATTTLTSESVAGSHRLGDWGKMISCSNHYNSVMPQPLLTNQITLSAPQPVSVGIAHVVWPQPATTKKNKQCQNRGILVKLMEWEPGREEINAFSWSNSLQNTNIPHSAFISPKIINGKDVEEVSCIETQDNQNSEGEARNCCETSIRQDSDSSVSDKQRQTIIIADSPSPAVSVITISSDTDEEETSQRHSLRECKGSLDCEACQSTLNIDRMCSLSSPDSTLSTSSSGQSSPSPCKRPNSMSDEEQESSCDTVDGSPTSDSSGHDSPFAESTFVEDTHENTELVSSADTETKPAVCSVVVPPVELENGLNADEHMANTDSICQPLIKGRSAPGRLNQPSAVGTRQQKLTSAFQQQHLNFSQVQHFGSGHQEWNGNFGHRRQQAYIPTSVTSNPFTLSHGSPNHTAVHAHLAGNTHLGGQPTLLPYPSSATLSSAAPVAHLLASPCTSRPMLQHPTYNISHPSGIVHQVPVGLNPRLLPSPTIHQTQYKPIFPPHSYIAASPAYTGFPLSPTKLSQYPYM

[11] = biological target: Mitogen-activated protein kinase 8 (Homo sapiens) (UniProt P45983); test: MAPK8 Invitrogen selectivity data (BI); settings: Compound concentration 3.0 uM
[12] = biological target: T3, Serine/threonine-protein kinase Sgk3 (Homo sapiens) (UniProt Q96BR1); test: SGKL Invitrogen selectivity data (BI); settings: Compound concentration 3.0 uM
T3 sequence (whole entry): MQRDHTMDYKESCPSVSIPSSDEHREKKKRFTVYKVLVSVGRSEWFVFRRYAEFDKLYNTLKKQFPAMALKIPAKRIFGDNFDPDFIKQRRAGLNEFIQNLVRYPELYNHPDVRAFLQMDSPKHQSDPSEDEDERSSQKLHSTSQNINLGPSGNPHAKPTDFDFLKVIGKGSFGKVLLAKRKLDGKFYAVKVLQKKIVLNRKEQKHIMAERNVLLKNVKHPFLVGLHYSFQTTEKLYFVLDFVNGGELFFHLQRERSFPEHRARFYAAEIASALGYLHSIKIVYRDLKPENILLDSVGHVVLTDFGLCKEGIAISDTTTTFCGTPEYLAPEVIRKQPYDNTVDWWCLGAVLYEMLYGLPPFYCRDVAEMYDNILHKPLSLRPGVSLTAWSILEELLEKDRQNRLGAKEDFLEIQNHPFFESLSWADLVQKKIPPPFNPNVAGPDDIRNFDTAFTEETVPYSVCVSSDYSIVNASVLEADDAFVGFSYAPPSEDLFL

Cricetinae = test: ML2(MT3) Cerep selectivity data (BI); settings: Compound concentration 20.0 uM
[13] = biological target: T4, Rhodopsin kinase GRK7 (Homo sapiens) (UniProt Q8WTQ7); test: GRK7 Invitrogen selectivity data (BI); settings: Compound concentration 3.0 uM
T4 sequence (whole entry): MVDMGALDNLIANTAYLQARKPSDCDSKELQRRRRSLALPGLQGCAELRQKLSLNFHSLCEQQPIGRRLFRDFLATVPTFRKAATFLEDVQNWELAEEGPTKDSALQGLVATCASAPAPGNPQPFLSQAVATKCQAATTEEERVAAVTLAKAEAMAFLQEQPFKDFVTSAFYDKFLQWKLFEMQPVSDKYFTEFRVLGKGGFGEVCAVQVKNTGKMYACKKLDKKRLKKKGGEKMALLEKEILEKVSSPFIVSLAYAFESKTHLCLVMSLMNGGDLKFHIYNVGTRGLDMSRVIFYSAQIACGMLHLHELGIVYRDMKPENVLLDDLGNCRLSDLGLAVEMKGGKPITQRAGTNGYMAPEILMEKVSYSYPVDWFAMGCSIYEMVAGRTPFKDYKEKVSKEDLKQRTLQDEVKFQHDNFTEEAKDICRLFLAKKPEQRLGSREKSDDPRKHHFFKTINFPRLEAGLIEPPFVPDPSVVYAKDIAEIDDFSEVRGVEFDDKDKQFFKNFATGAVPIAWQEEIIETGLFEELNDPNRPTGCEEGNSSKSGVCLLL

Measured: residual activity

Sequence of Alpha-1D adrenergic receptor (Homo sapiens) (P25100 whole entry): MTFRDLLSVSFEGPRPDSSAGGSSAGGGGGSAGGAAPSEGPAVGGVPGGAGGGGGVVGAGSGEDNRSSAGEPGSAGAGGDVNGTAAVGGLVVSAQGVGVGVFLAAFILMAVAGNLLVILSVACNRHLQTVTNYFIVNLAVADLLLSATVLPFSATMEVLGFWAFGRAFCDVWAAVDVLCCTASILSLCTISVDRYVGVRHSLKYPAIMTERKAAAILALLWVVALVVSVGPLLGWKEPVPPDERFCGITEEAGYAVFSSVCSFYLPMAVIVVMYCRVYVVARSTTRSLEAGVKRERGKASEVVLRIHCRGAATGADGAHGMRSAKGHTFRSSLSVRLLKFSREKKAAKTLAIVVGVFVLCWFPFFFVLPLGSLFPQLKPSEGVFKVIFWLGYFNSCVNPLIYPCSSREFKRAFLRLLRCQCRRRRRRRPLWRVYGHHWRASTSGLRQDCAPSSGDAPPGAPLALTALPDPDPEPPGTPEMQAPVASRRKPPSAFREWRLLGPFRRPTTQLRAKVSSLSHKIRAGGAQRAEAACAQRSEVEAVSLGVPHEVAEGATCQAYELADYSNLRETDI
Sequence of Sodium channel regulatory subunit beta-1 (Rattus norvegicus) (Q00954 whole entry): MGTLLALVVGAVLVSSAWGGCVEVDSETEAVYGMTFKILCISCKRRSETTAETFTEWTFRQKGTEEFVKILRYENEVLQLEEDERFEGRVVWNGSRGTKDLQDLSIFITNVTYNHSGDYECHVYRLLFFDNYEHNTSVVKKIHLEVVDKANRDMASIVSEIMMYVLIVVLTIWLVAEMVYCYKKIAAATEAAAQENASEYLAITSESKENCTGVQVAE

CN(C)C(=O)Cn1cc(-c2nc([C@@](C)(c3ccc(-c4cnc(N)nc4)cc3)C3CC3)no2)cn1 [BI 665915]
inactive: [1] 107% | [2] 84% | [3] 99% | [4] 101% | [5] 102% | [6] 103% | [7] 82% | [8] 85% | [9] 96% | [10] 99% | [11] 93% | [12] 101% | Cricetinae 70% | [13] 101%
